Here are results for ten compounds from patent publication US8822471B2, “Compounds, pharmaceutical compositions and uses thereof” (Boehringer Ingelheim International GmbH, priority 2011, dated 2014).

What is called EC50 is the midpoint of the concentration-response curve. High values mean weaker potency, low ones greater potency.

The assay concerns the target T1, mutant form of the human GPR119 receptor (Homo sapiens, UniProt Q8TDV5, S329A/T327A).
T1 construct: T327 & S329 changed to alanines; expressed in transfected cells
T1 sequence (Q8TDV5 2-335 T327A/S329A): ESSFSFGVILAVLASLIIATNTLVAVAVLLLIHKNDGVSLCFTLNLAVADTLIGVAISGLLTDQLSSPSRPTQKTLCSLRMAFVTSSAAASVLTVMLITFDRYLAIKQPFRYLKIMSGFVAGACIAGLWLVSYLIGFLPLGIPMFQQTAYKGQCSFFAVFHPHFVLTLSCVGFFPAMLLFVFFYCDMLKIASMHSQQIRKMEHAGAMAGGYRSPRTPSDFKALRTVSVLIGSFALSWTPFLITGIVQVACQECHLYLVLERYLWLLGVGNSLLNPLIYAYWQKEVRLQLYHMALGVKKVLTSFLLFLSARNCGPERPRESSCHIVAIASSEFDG
Description: LANCE cAMP-384 assay in HEK293 cells stably expressing a mutant form of the human GPR119 receptor. The assay is classed as cell-based. The following applies: HEK293 cells stably expressing mutant human GPR119, LANCE cAMP-384 Kit, 20 min at 37° C. The procedure: Quantitative detection of cAMP accumulation from cells expressing human GPR119 receptor is achieved using Perkin Elmer's LANCE cAMP-384 Kit (Cat#AD0264) according to the manufacturer's protocol. Briefly, HEK293 cells stably expressing a mutant form of the human GPR119 receptor as assay tool (Methionine 1 replaced with the amino acid sequence […], and T327 & S329 changed to alanines; SEQ ID No. 1) are grown to 50-70% confluency in cell culture media (DMEM, 10% heat inactivated Fetal Bovine Serum, 50 I.U./mL penicillin, 50 μg/mL streptomycin, 10 mM HEPES, 20 μg/mL G418 Sulfate). On the day of the assay, GPR119 stable HEK293 cells are lifted from the tissue culture plate and 1000 cells/well are incubated along with various concentrations of test compounds for 20 min at 37° C. Detection Buffer (50 mM HEPES, 10 mM calcium chloride, 0.35% Triton X-100, 1 mg/mL BSA) containing cAMP-specific antibody is then added to all wells and allowed to equilibrate in the dark for 10 minutes at room temperature. Upon equilibration, Detection Buffer containing europium-labeled cAMP tracer complex is added to all wells and allowed to react for 1 hour at room temperature. After 1 hour, bound europium-labeled cAMP tracer is measured using a Perkin Elmer Envision plate reader. The quantity of cAMP generated in each well is derived from a standard curve. EC50 is determined using nonlinear regression analysis of the cAMP values over a range of agonist concentration (12 points spanning the range from 30 μM to 100 pM).
Background: In TR-FRET formats the signal depends on donor and acceptor labels being close together.

The structures appear in SMILES notation.

Compound `Cc1ncnn1-c1ccc(C(=O)N(C2CC2)C2CCN(c3ncc(Cl)cn3)CC2)cc1` [Example 109, N-[1-(5-Chloro-pyrimidin-2-yl)-piperidin-4-yl]-N-cyclopropyl-4-(5-methyl-[1,2,4]triazol-1-yl)-benzamide] had an EC50 of 1740 nM.
`O=C(c1ccc(-n2cnnn2)cc1)N(C1CC1)C1CCN(c2ncc(Cl)cn2)CC1` [Example 110, N-[1-(5-Chloro-pyrimidin-2-yl)-piperidin-4-yl]-N-cyclopropyl-4-tetrazol-1-yl-benzamide] came in with an EC50 of 360 nM.
`Cc1nnnn1-c1ccc(C(=O)N(C2CC2)C2CCN(c3ncc(Cl)cn3)CC2)cc1` [Example 111, N-[1-(5-Chloro-pyrimidin-2-yl)-piperidin-4-yl]-N-cyclopropyl-4-(5-methyl-tetrazol-1-yl)-benzamide] came in with an EC50 of 407 nM.
For `Cc1nccn1-c1ccc(C(=O)N(C2CC2)C2CCN(c3ncc(Cl)cn3)CC2)cc1F` [Example 112, N-[1-(5-Chloro-pyrimidin-2-yl)-piperidin-4-yl]-N-cyclopropyl-3-fluoro-4-(2-methyl-imidazol-1-yl)-benzamide], a half-maximal response (EC50) required 1500 nM.
Consider `O=C(c1ccc(-n2cncn2)c(F)c1)N(C1CC1)C1CCN(c2ncc(Cl)cn2)CC1` [Example 113, N-[1-(5-Chloro-pyrimidin-2-yl)-piperidin-4-yl]-N-cyclopropyl-3-fluoro-4-[1,2,4]triazol-1-yl-benzamide], for which it took 47 nM to reach a half-maximal effect (EC50).
For the compound `O=C(c1ccc(-n2cnnn2)c(F)c1)N(C1CC1)C1CCN(c2ncc(Cl)cn2)CC1` [Example 115, N-[1-(5-Chloro-pyrimidin-2-yl)-piperidin-4-yl]-N-cyclopropyl-3-fluoro-4-tetrazol-1-yl-benzamide], the EC50 was determined as 54 nM.
As to `Cc1nnnn1-c1ccc(C(=O)N(C2CC2)C2CCN(c3ncc(Cl)cn3)CC2)cc1F` [Example 116, N-[1-(5-Chloro-pyrimidin-2-yl)-piperidin-4-yl]-N-cyclopropyl-3-fluoro-4-(5-methyl-tetrazol-1-yl)-benzamide], the EC50 came out at 294 nM.
Turning to `O=C(c1ccc(-n2cnnn2)cc1)N(C1CC1)C1CCN(c2ncc(C(F)(F)F)cc2F)CC1` [Example 117, N-Cyclopropyl-N-(3′-fluoro-5′-trifluoromethyl-3,4,5,6-tetrahydro-2H-[1,2′]bipyridinyl-4-yl)-4-tetrazol-1-yl-benzamide], the response was half-maximal at 53 nM (EC50).
As for `Cc1nnnn1-c1ccc(C(=O)N(C2CC2)C2CCN(c3ncc(C(F)(F)F)cc3F)CC2)cc1` [Example 118, N-Cyclopropyl-N-(3′-fluoro-5′-trifluoromethyl-3,4,5,6-tetrahydro-2H-[1,2′]bipyridinyl-4-yl)-4-(5-methyl-tetrazol-1-yl)-benzamide], the response was half-maximal at 101 nM (EC50).
`Cc1nnnn1-c1ccc(C(=O)N(C2CC2)C2CCN(c3ncc(C(F)(F)F)cc3F)CC2)cc1F` [Example 119, N-Cyclopropyl-3-fluoro-N-(3′-fluoro-5′-trifluoromethyl-3,4,5,6-tetrahydro-2H-[1,2]bipyridinyl-4-yl)-4-(5-methyl-tetrazol-1-yl)-benzamide] gave an EC50 of 117 nM.
